# “Also recorded” adds a separate entry of the source.
# Columns and labels:
# tumor cells = experiment: In vivo antitumor activity in mice inoculated with tumor cells, eight daily i.p. doses; design: species or system strain DBA/2; conditions: for % Inhibition / Tumor Weight: eight daily doses; for Tumor Weight: mean ± standard deviation; for inhibitory effect on tumor growth in vivo: overall assessment in words
# Description: Female mice, strain DBA/2, were inoculated with tumor cells. Treatment with the test compounds began the day following inoculation. The treatment consisted of eight daily doses i.p. (intraperitoneal) of either Compounds A and C for eight consecutive days. Tumor size was measured on the day following the last day of treatment to determine the inhibitory effect of the test compounds on tumor growth.
# [1] = system: Cem human lymphoblastic leukemia cells; experiment: Reversal studies to identify the point of enzymatic inhibition (Example 11); assay type: cell-based; conditions: from reversal with 100 µM hypoxanthine and/or 5 µM thymidine
# Description: The mechanism of action of each compound was determined through further tests employing so-called "reversal" studies. These studies supplied compounds or precursors which, alone or together, identified the specific point of enzymatic inhibition. • (a) Hypoxanthine - Hypoxanthine will reverse the inhibitory effects of a compound if the compound functions as an inhibitor of purine de novo synthesis. The availability of hypoxanthine thus allows cells to bypass purine de novo synthesis. • (b) Thymidine - Thymidine alone will reverse the inhibitory effects of a compound if the compound functions as a specific inhibitor of thymidylate synthetase. • (c) Hypoxanthine and Thymidine - If a compound is determined in (a) to not be an inhibitor of purine de novo synthesis, and in (b) to not be an inhibitor of thymidilate synthetase, then a reversal study utilizing hypoxanthine and thymidine, in combination, will determine whether the compound can produce inhibition of both pathways. Thus if this combination reverses the inhibitory effects of a compound, the compound most likely functions as an inhibitor of dihydrofolate reductase (involved in both purine and pyrimidine biosynthesis).
# In each case, the basic procedure outlined above was followed, modified in that 250 µl of the reversal compound [or of each reversal compound in […]] was added to the test wells, and the amount of serumless media added to each test well was decreased [or entirely eliminated in (b)] by the same amount. The reversal compounds were prepared as 8X stock solutions in phosphate buffered saline (sterile filtered through a 0.2 µ acrodisc filter - Gelman) so that 250 µl of the stock solution would yield a final concentration of 100 µM hypoxanthine and/or 5 µM thymidine.
# [2] = system: Cem human lymphoblastic leukemia cells; experiment: Inhibition of growth of Cem human lymphoblastic leukemia cells, 72 hours incubation, Coulter Counter particle count (Example 11); assay type: cell-based; conditions: for activity at 0.045 µg/mL: concentration 0.045 µg/ml; for activity at 0.137 µg/mL: concentration 0.137 µg/ml; for activity at 0.411 µg/mL: concentration 0.411 µg/ml; for activity at 1.23 µg/mL: concentration 1.23 µg/ml; for activity at 3.7 µg/mL: concentration 3.7 µg/ml; for activity at 11.1 µg/mL: concentration 11.1 µg/ml; for activity at 33.3 µg/mL: concentration 33.3 µg/ml; for activity at 100 µg/mL: concentration 100.0 µg/ml; for IC50: concentration inhibiting 50% of cellular growth, read-out: relative overall in vitro inhibitory concentration (IC50); for activity at 0.015 µg/mL: concentration 0.015 µg/ml
# Description: Each of the compounds was dissolved in 100% dimethylsulfoxide. Dilutions of each compound were prepared to yield a range of test concentrations as hereinafter indicated.
# Cem human lymphoblastic leukemia cells are grown in RPMI 1640 media (MABio), supplemented with 10% dialyzed fetal bovine serum (Gibco) at 37°C in humidified atmospheric conditions of 95% air and 5% CO₂. The cells are grown in static suspension (T-flask, Corning) maintained in log phase at a concentration of 3-7 x 10⁵ cells/ml.
# (i) 10 µl of a test compound is placed in a well (Costar 24 well clusters). This step is repeated for each test concentration of the compounds. (ii) 500 µl of serum-free media is added to each well. (iii) A sterile bottle containing RPMI 1640 media supplemented with 10% dialyzed fetal bovine serum, 16 mM hepes and 8 mM mops buffers and 3 x 10⁴ cells/ml is placed on a magnetic stirrer. A Wheaton peristaltic pump is used to deliver 1.5 ml of this cell suspension to each well. The resulting final volume delivered to each well is 2.0 ml at a cellular concentration of […]. (iv) The cluster wells are incubated at 37°C in a humidified incubator (95% air, 5% CO₂) for 72 hours. (v) After the incubation period, measurements of each well are taken using the ZB1 Coulter Counter particle counter and the IC₅₀ (concentration inhibiting 50% of cellular growth) is determined. (vi) The results of this test are as follows: Table I
# CCRF-CEM [3] = experiment: Representative inhibition values against CCRF-CEM cell cultures; assay type: cell-based; conditions: Homo sapiens
# CCRF-CEM [4] = experiment: Reversal of cytotoxicity by added metabolites (hypoxanthine, AICA, thymidine, leucovorin); assay type: cell-based, human
# [5] = Homo sapiens, CCRF-CEM, 72 hours, read-out: Cellular Growth (%)
# [6] = Homo sapiens, CCRF-CEM, 72 hours
# [7] = Table VI Run 1, dose 12.50 mg/kg i.p.
# [8] = Table VI Run 1, dose 25.00 mg/kg i.p.
# [9] = Table VI Run 1, dose 50.00 mg/kg i.p.
# [10] = Table VI Run 1, dose 100.00 mg/kg i.p.
# [11] = Table VI Run 1, dose 200.00 mg/kg i.p.
# [12] = Table VI Run 2, dose 0.6256 mg/kg i.p.
# [13] = Table VI Run 2, dose 1.25 mg/kg i.p.
# [14] = Table VI Run 2, dose 5 mg/kg i.p.
# [15] = Table VI Run 2, dose 10 mg/kg i.p.
# [16] = Table VI Run 2, dose 20 mg/kg i.p.
# [17] = Table VI Run 2, dose 40 mg/kg i.p.
compound,measurement,setting,value
"Nc1nc(O)c2c(n1)NCC2CCc1ccc(C(=O)NC(CCC(=O)O)C(=O)O)cc1 (stereo not drawn) [Compound A, reference compound]",% Inhibition,"tumor cells; Table V, dose 3.125 mg/kg i.p.",0%
same,Tumor Weight,"tumor cells; Table V, dose 3.125 mg/kg i.p.",2825 ± 822 mg
same,% Inhibition,"tumor cells; Table V, dose 6.25 mg/kg i.p.",0%
same,Tumor Weight,"tumor cells; Table V, dose 6.25 mg/kg i.p.",2719 ± 413 mg
same,% Inhibition,"tumor cells; Table V, dose 12.5 mg/kg i.p.",0%
same,Tumor Weight,"tumor cells; Table V, dose 12.5 mg/kg i.p.",3360 ± 703 mg
same,% Inhibition,"tumor cells; Table V, dose 25 mg/kg i.p.",12%
same,Tumor Weight,"tumor cells; Table V, dose 25 mg/kg i.p.",2121 ± 410 mg
same,% Inhibition,"tumor cells; Table V, dose 50 mg/kg i.p.",19%
same,Tumor Weight,"tumor cells; Table V, dose 50 mg/kg i.p.",1935 ± 498 mg
same,% Inhibition,"tumor cells; Table V, dose 100 mg/kg i.p.",0%
same,Tumor Weight,"tumor cells; Table V, dose 100 mg/kg i.p.",3447 ± 747 mg
same,% Inhibition,"tumor cells; Table V, dose 200 mg/kg i.p.",0%
same,Tumor Weight,"tumor cells; Table V, dose 200 mg/kg i.p.",2525 ± 694 mg
same,inhibitory effect on tumor growth in vivo,tumor cells,essentially no inhibitory effect; also recorded: inactive
same,mechanism of action (point of enzymatic inhibition),[1],appear to inhibit TS
same,activity at 0.045 µg/mL,[2]; [5],100%
same,activity at 0.137 µg/mL,[2]; [5],63.9%
same,activity at 0.411 µg/mL,[2]; [5],21.5%
same,activity at 1.23 µg/mL,[2]; [5],16.1%
same,activity at 3.7 µg/mL,[2]; [5],15.3%
same,activity at 11.1 µg/mL,[2]; [5],16.2%
same,activity at 33.3 µg/mL,[2]; [5],15.5%
same,activity at 100 µg/mL,[2]; [5],13.1%
same,IC50,[2]; [6],0.2 µg/mL
Nc1nc(O)c2c(CCc3ccc(C(=O)O)cc3)c[nH]c2n1,IC50,CCRF-CEM [3],> 20 µg/mL
Nc1nc2[nH]cc(CCc3ccc(C(=O)N[C@@H](CCC(=O)O)C(=O)O)cc3)c2c(=O)[nH]1,Cytotoxicity reversed by addition of aminoimidazolecarboxamide (AICA),CCRF-CEM [4]; addition of aminoimidazolecarboxamide (AICA),not reversed
same,Cytotoxicity reversed by addition of hypoxanthine,CCRF-CEM [4]; addition of hypoxanthine,not reversed
same,Cytotoxicity reversed by addition of thymidine,CCRF-CEM [4]; addition of thymidine,reversed
same,IC50,CCRF-CEM [3],0.004 µg/mL
Nc1nc(O)c2c(CCc3ccc(C(=O)NC(CCC(=O)O)C(=O)O)cc3)c[nH]c2n1 (stereo not drawn) [Compound C],% Inhibition,tumor cells; [7],98%
same,Tumor Weight,tumor cells; [7],102 ± 166 mg
same,% Inhibition,tumor cells; [8],100%
same,Tumor Weight,tumor cells; [8],0 ± 0 mg
same,% Inhibition,tumor cells; [9],100%
same,Tumor Weight,tumor cells; [9],0 ± 0 mg
same,% Inhibition,tumor cells; [10],100%
same,Tumor Weight,tumor cells; [10],0 ± 0 mg
same,% Inhibition,tumor cells; [11],100%
same,Tumor Weight,tumor cells; [11],0 ± 0 mg
same,% Inhibition,tumor cells; [12],0%
same,Tumor Weight,tumor cells; [12],7381 ± 2397 mg
same,% Inhibition,tumor cells; [13],0%
same,Tumor Weight,tumor cells; [13],6682 ± 2300 mg
same,Tumor Weight,"tumor cells; Table VI Run 2, dose 2.5 mg/kg i.p.",2908 ± 1948 mg
same,% Inhibition,tumor cells; [14],83%
same,Tumor Weight,tumor cells; [14],1034 ± 657 mg
same,% Inhibition,tumor cells; [15],97%
same,Tumor Weight,tumor cells; [15],196 ± 152 mg
same,% Inhibition,tumor cells; [16],100%
same,Tumor Weight,tumor cells; [16],18 ± 57 mg
same,% Inhibition,tumor cells; [17],100%
same,Tumor Weight,tumor cells; [17],0 ± 0 mg
same,inhibitory effect on tumor growth in vivo,tumor cells,marked in vivo inhibitory effect; also recorded: highly active
same,mechanism of action (point of enzymatic inhibition),[1],appear to inhibit TS
same,activity at 0.005 µg/mL,"[2]; Homo sapiens, CCRF-CEM, concentration 0.005 µg/ml, 72 hours, read-out: Cellular Growth (%)",96%
same,activity at 0.015 µg/mL,[2]; [5],25%
same,activity at 0.045 µg/mL,[2]; [5],14%
same,activity at 0.137 µg/mL,[2]; [5],14%
same,activity at 0.411 µg/mL,[2]; [5],13%
same,activity at 1.23 µg/mL,[2]; [5],14%
same,activity at 3.7 µg/mL,[2]; [5],13%
same,activity at 11.1 µg/mL,[2]; [5],12%
same,activity at 33.3 µg/mL,[2]; [5],12%
same,activity at 100 µg/mL,[2]; [5],14%
same,IC50,[2]; [6],0.007 µg/mL
same,more active in vitro than Compound A by a factor,"[2]; in vitro, relative to Compound A",at least 25 fold
"Cc1nc(O)c2c(CCc3ccc(C(=O)N[C@@H](CCC(=O)O)C(=O)O)cc3)c[nH]c2n1 [N-{4-[2-(4-hydroxy-6-methylpyrrolo[2,3-d]pyrimidin-3-yl)ethyl]-benzoyl}-L-glutamic acid]",IC50,CCRF-CEM [3],0.0084 µg/mL
Nc1nc(O)c2c(CCc3ccc(C(=O)N[C@@H](CCC(=O)O)C(=O)O)cc3F)c[nH]c2n1,IC50,CCRF-CEM [3],0.019 µg/mL
"COc1ccc(CCc2c[nH]c3nc(N)nc(O)c23)cc1 [3-[2-(4-methoxyphenyl)ethyl]-4-hydroxy-6-aminopyrrolo[2,3-d]pyrimidine]",IC50,CCRF-CEM [3],> 20 µg/mL
"Nc1nc(O)c2c(CCc3ccc(C(=O)N[C@@H](CCC(=O)O)C(=O)O)s3)c[nH]c2n1 [N-{5-[2-(4-hydroxy-6-aminopyrrolo[2,3-d]-pyrimidin-3-yl)ethyl]thien-2-ylcarbonyl}-L-glutamic acid]",IC50,CCRF-CEM [3],0.025 µg/mL
Nc1nc(O)c2c(CCc3cccc(F)c3)c[nH]c2n1,IC50,CCRF-CEM [3],> 20 µg/mL
"O=C(O)CC[C@H](NC(=O)c1ccc(CCc2c[nH]c3ncnc(O)c23)cc1)C(=O)O [N-{4-[2-(4-hydroxypyrrolo[2,3-d]pyrimidin-3-yl)ethyl]benzoyl}-L-glutamic acid]",IC50,CCRF-CEM [3],1.2 µg/mL
Nc1nc(O)c2c(CCCc3ccc(C(=O)NC(CCC(=O)O)C(=O)O)cc3)c[nH]c2n1 (stereo not drawn) [Compound B],mechanism of action (point of enzymatic inhibition),[1],inhibition of DHFR rather than TS
same,activity at 0.015 µg/mL,[2]; [5],76.9%
same,activity at 0.045 µg/mL,[2]; [5],33.5%
same,activity at 0.137 µg/mL,[2]; [5],17.7%
same,activity at 0.411 µg/mL,[2]; [5],13%
same,activity at 1.23 µg/mL,[2]; [5],11.3%
same,activity at 3.7 µg/mL,[2]; [5],10.4%
same,activity at 11.1 µg/mL,[2]; [5],9.6%
same,activity at 33.3 µg/mL,[2]; [5],10.8%
same,IC50,[2]; [6],0.03 µg/mL
Nc1nc(O)c2c(CCc3ccc(C(=O)N[C@@H](CCC(=O)O)C(=O)O)c(F)c3)c[nH]c2n1,IC50,CCRF-CEM [3],0.008 µg/mL
